The values below come from patent US6593342B1, “Pharmaceutical compositions comprising 2-quinolones” (Laboratoire L. Lafon, priority 1998, dated 2003).

One series deals with U-87MG. Kind of series: MTT test, U-87MG. Type of series: cell-based. The following applies: Homo sapiens, 10^−5 M, 72 hours, control = 100%, mean ± SEM, read-out: average optical density (MTT), percentage relative to control. Here is the method: (§1) The influence of the compounds of formulae (I) and (Ia) on non-clonogenic cells was evaluated with the aid of the MTT calorimetric test.
(§2) The principle of the MTT test is based on the mitochondrial reduction, by the metabolically active live cells, of the yellow-colored product MTT (3-(4,5-dimethylthiazol-2-yl)-2,5-diphenyltetrazolium bromide) to a blue-colored product, formazan. The amount of formazan thus obtained is directly proportional to the amount of live cells present in the culture well(s). This amount of formazan is measured by spectrophotometry.
(§3) The cell lines are maintained as a monolayer culture at 37° C. in stoppered culture dishes containing MEM 25 MM HEPES (Minimum Essential Medium) base medium. This medium is suited to the growth of a range of various mammalian diploid or primary cells. This medium is then supplemented with:
(§4) an amount of 5% of FCS (Foetal Calf Serum) decomplemented at 56° C. for 1 hour,
(§5) 0.6 mg/ml of L-glutamine,
(§6) 200 μg/ml of streptomycin,
(§7) The 12 human cancer cell lines which were used were obtained from the American Type Culture Collection (ATCC, Rockville, Md., USA). These 12 cell lines are:
(§8) U-373MG (code ATCC: HTB-17) and U-87MG (code ATCC: HTB-14) which are two glioblastomas,
(§9) Experimentally: 100 μl of a cell suspension containing 20 000 to 50 000 (depending on the cell type used) cells/ml of culture medium are inoculated in 96-well flat-bottomed multi-well plates and are incubated at 37° C., under an atmosphere comprising 5% CO2 and 70% humidity. After incubation for 24 hours, the culture medium is replaced with 100 μl of fresh medium containing either the various test compounds at concentrations ranging from 10^−5 to 10^−10 M or the solvent used to dissolve the test products (control condition). After incubation for 72 hours under the above conditions, the culture medium is replaced with 100 μl of a yellowish solution of MTT dissolved at a rate of 1 mg/ml in RPMI 1640. The microplates are reincubated for 3 hours at 37° C. and are then centrifuged for 10 minutes at 400×g. The yellowish solution of MTT is removed and the blue formazan crystals formed in the cell are dissolved in 100 μl of DMSO. The microplates are then shaken for 5 minutes. The intensity of the resulting blue coloration, and thus of the conversion of the yellow product MTT into blue formazan by the cells that are still alive at the end of the experiment, is quantified by spectrophotometry using a Dynatech Immunoassay System machine at wavelengths of 570 nm and 630 nm corresponding, respectively, to the maximum absorption wavelengths of formazan and to the background noise. Software incorporated in the spectrophotometer calculates the average optical density values and the standard deviation (SD) and standard error of mean (SEM) values.
(§10) By way of example, the results of the average optical density, expressed as a percentage relative to the average optical density measured under the control condition (set equal to 100%), obtained at a concentration of 10^−5 M on the 12 abovementioned tumor cell lines are given in Table II.

In another series the test system is U-373MG. Put plainly: MTT test, U-373MG. The following applies: Homo sapiens, U373 MG, 10^−5 M, 72 hours, control = 100%, mean ± SEM, read-out: average optical density (MTT), percentage relative to control. In kind it is cell-based. As for the experimental part: as §1, §2, §3, §4, §5, §6, §7, §8, §9, §10
The test system of a further series is SW1088. Kind of series: MTT test, SW1088. Type of series: cell-based. The following applies: Homo sapiens, 10^−5 M, 72 hours, control = 100%, mean ± SEM, read-out: average optical density (MTT), percentage relative to control. Here is the method:
as §1, §2, §3, §4, §5, §6, §7
SW1088 (code ATCC: HTB-12) which is an astrocytoma,
as §9, §10

For another series, the system named is T24. Kind of series: MTT test, T24. In kind it is cell-based. The following applies: Homo sapiens, T-24, 10^−5 M, 72 hours, control = 100%, mean ± SEM, read-out: average optical density (MTT), percentage relative to control. As for the experimental part:
as §1, §2, §3, §4, §5, §6, §7
(§11) J82 (code ATCC: HTB-1) and T24 (code ATCC: HTB-4) which are two bladder cancers,
as §9, §10

A further series has as its system J82. Put plainly: MTT test, J82. Type of series: cell-based. Particulars: Homo sapiens, 10^−5 M, 72 hours, control = 100%, mean ± SEM, read-out: average optical density (MTT), percentage relative to control. As for the experimental part:
as §1, §2, §3, §4, §5, §6, §7, §11, §9, §10

In the next series the test system is HCT-15. Put plainly: MTT test, HCT-15. Type of series: cell-based. The following applies: Homo sapiens, 10^−5 M, 72 hours, control = 100%, mean ± SEM, read-out: average optical density (MTT), percentage relative to control. Here is the method:
as §1, §2, §3, §4, §5, §6, §7
(§12) HTC-15 (code ATCC: CCL-225) and LoVo (code ATCC: CCL-229) which are two colorectal cancers,
as §9, §10

The test system of a further series is LoVo. Put plainly: MTT test, LoVo. Particulars: Homo sapiens, 10^−5 M, 72 hours, control = 100%, mean ± SEM, read-out: average optical density (MTT), percentage relative to control. Type of series: cell-based. Here is the method:
as §1, §2, §3, §4, §5, §6, §7, §12, §9, §10

The next series has as its system MCF7. Kind of series: MTT test, MCF7. Type of series: cell-based. The following applies: Homo sapiens, 10^−5 M, 72 hours, control = 100%, mean ± SEM, read-out: average optical density (MTT), percentage relative to control. Here is the method: as §1, §2, §3, §4, §5, §6, §7
(§13) T-47D (code ATCC: HTB-133) and MCF7 (code ATCC: HTB-22) which are two breast cancers,
as §9, §10

The subject of the next series is T-47D. Put plainly: MTT test, T-47D. The following applies: Homo sapiens, T47D, 10^−5 M, 72 hours, control = 100%, mean ± SEM, read-out: average optical density (MTT), percentage relative to control. Type of series: cell-based. Here is the method: as §1, §2, §3, §4, §5, §6, §7, §13, §9, §10
The test system of a further series is A549. Kind of series: MTT test, A549. Type of series: cell-based. Particulars: Homo sapiens, 10^−5 M, 72 hours, control = 100%, mean ± SEM, read-out: average optical density (MTT), percentage relative to control. As for the experimental part: as §1, §2, §3, §4, §5, §6, §7
(§14) A549 (code ATCC: CCL-185) and A-427 (code ATCC: HTB-53) which are two non-small-cell lung cancers,
as §9, §10

The next series has as its system A-427. Put plainly: MTT test, A-427. Type of series: cell-based. Particulars: Homo sapiens, 10^−5 M, 72 hours, control = 100%, mean ± SEM, read-out: average optical density (MTT), percentage relative to control. As for the experimental part: as §1, §2, §3, §4, §5, §6, §7, §14, §9, §10
A further series deals with PC-3. Put plainly: MTT test, PC-3. In kind it is cell-based. Particulars: Homo sapiens, 10^−5 M, 72 hours, control = 100%, mean ± SEM, read-out: average optical density (MTT), percentage relative to control. As for the experimental part: as §1, §2, §3, §4, §5, §6, §7
PC-3 (code ATCC: CRL-1435) which is a prostate cancer.
as §9, §10

Series [1] can be described thus: Determination of the maximum tolerated dose (MTD). The following applies: mouse, in vivo, ip; B6D2F1/Jico mice; single intraperitoneal administration, 2.5 to 160 mg/kg; survival over 14 days. Here is the method: 3.—Determination of the Maximum Tolerated Dose (MTD):
The evaluation of the maximum tolerated dose was carried out on 4- to 6-week-old B6D2F1/Jico mice. The compounds were administered intraperitoneally at increasing doses graduating from 2.5 to 160 mg/kg. The value of the MTD (expressed in mg/kg) is determined from the observation of the survival rate of the animals over a 14-day period after a single administration of the product under consideration. The weight change of the animals is also monitored during this period. When the value of the MTD is greater than 160 mg/kg, the MTD value is likened to 160 mg/kg by default.
The results of the estimation of the maximum tolerated dose (MTD) are collated in the following table: […]

SMILES strings stand for the structures.

As to `COc1ccc(-c2cc3c(OC)ccc(OC)c3nc2O)cc1` [CRL8336, 5,8-Dimethoxy-3-(4-methoxyphenyl)-1,2-dihydro-2-quinolinone], the viability at 10 µM in the series with U-87MG stood at 82.3 ± 1.8%; with U-373MG, 82.3 ± 1.6%; in the series on SW1088, 101 ± 4.3%; in the series with T24, 88.2 ± 1.4%; with J82 it was 90.9 ± 0.9%; in the series on HCT-15, 93.1 ± 3.2%. The viability at 10 µM was 92.6 ± 3.4% in the series with LoVo; 73.9 ± 0.7% in the series on MCF7; 96.2 ± 2.9% with T-47D; 114 ± 1.9% in the series with A549; 87.9 ± 3.1% in the series on A-427; 91.7 ± 1.5% in the series with PC-3. For the same compound, the MTD at 14 day in series [1] was > 160 mg/kg.

Take `COc1cccc2cc(-c3ccccc3)c(O)nc12` [CRL8339, 8-Methoxy-3-phenyl-1,2-dihydro-2-quinolinone]: the viability at 10 µM in the series on U-87MG was determined as 69.1 ± 2.1%; in the series with U-373MG, 73.6 ± 1.8%; in the series with SW1088, 87.1 ± 2.6%; in the series with T24, 87.4 ± 2%; with J82, 83.7 ± 0.6%; with HCT-15 it was 65.5 ± 2.2%. Further, the viability at 10 µM came out at 74.4 ± 1.8% in the series on LoVo; 82.7 ± 3.5% with MCF7; 81 ± 2.8% with T-47D; 49.6 ± 2.2% with A549; 52.3 ± 2.3% in the series with A-427; 84.3 ± 1.8% with PC-3. Also, the maximum tolerated dose (MTD) at 14 day in series [1] is > 160 mg/kg.

As for `COc1ccc(-c2cc3c(OC)cc(OC)cc3nc2OC)cc1` [Compound 7a, 2,5,7-Trimethoxy-3-(4-methoxyphenyl)quinoline], the melting point lay within 106 to 107 °C.

On to `CCOC(=O)COc1nc2cc(OC)cc(OC)c2cc1-c1ccc(OC)cc1` [Compound 11a, Ethyl 2-([5,7-Dimethoxy-3-(4-methoxyphenyl)-2-quinolinyl]oxy)acetate], for which the melting point was in the range of 95 to 96 °C.

In the case of `COc1ccc(-c2cc3c(OC)cc(OC)cc3nc2OCC(=O)OCc2ccccc2)cc1` [Compound 13a, Benzyl 2-([5,7-Dimethoxy-3-(4-methoxyphenyl)-2-quinolinyl]oxy)acetate], the melting point lay in the range of 114 to 115 °C.

The compound `CCN(CC)C(=O)COc1nc2cc(OC)cc(OC)c2cc1-c1ccc(OC)cc1` [Compound 18a, N,N-Diethyl-2-([5,7-dimethoxy-3-(4-methoxyphenyl)-2-quinolinyl]oxy)acetamide] returned a melting point of 146 to 147 °C.

Turning to `COc1ccc(-c2cc3c(OC)cc(OC)cc3nc2OCC#N)cc1` [Compound 19a, 2-([5,7-Dimethoxy-3-(4-methoxyphenyl)-2-quinolinyl]oxy)acetonitrile], the melting point lay within 149 to 150 °C.

With `COc1ccc(-c2cc3c(OC)cc(OC)cc3nc2OCCCN(C)C)cc1` [Compound 22a], the melting point lay in the range of 54 to 55 °C.

`COc1ccc(-c2cc3c(OC)cc(OC)cc3nc2OCCN(C)C)cc1` [Compound 23a, N,N-Dimethyl-2-[5,7-dimethoxy-3-(4-methoxyphenyl)-2-quinolyl]oxy-1-ethanamine]: the melting point is 49 to 50 °C.

For the compound `COc1ccc2[nH]c(=O)c(-c3ccccc3)cc2c1` [Compound 44, 6-Methoxy-3-phenyl-1,2-dihydro-2-quinolinone], the melting point lay within 243 to 244 °C.

Consider `COc1cc(OC)c2cc(-c3ccc(OS(=O)(=O)C(F)(F)F)cc3)c(=O)n(C)c2c1` [Compound 45], for which the melting point was 144 to 145 °C.

On to `Cc1ccc2[nH]c(=O)c(-c3ccccc3)cc2c1` [Compound 48, 6-Methyl-3-phenyl-1,2-dihydro-2-quinolinone], for which the melting point fell in the range of 212 to 213 °C.
